Data: patent US10238670B2, “9-aminomethyl minocycline compounds and methods of use thereof in urinary tract infection (UTI) treatment” (Paratek Pharmaceuticals, Inc., priority 2016, dated 2019)

Experiment: Phase 1b study in female adults with cystitis, urine PK
Type: in vivo, human
Conditions: urine
Method: Urine was collected, the volume recorded, and analyzed for Compound 1 concentration at the following times: • Day 1 to 2: pooled total urine 0 to 4, 4 to 8, 8 to 12, and 12-24 hours after the t=0 h dose; Collection of the 12 to 24 h sample should be completed prior to the t=24 h dose on Day 2; • Day 5 to 6: pooled total urine 0 to 4, 4 to 8, 8 to 12, and 12-24 hours after the t=96 h dose;
Urine was pooled during the intervals above. At the end of each interval, the time and total volume were recorded.
Compound 1 urine concentration data was used to determine the amount excreted in a dosing interval, the urinary excretion rate, and, in conjunction with the plasma concentration data, to estimate the renal clearance (CLr) of Compound 1.
Urine was collected and the volume recorded at the following times: • Day 1 to 2: pooled total urine 0 to 4, 4 to 8, 8 to 12, and 12-24 hours after the t=0 h dose; • Day 5 to 6: pooled total urine 0 to 4, 4 to 8, 8 to 12, and 12-24 hours after the t=96 h dose;
At the end of each collection time period the pooled urine was frozen at −20° C. or colder and the total volume of urine collected for the time period was recorded. The samples were kept frozen at −20° C. or colder pending shipment to the bioanalytical laboratory.
The urine sample volume, its Compound 1 concentration, the amount of Compound 1 excreted in the urine (product of volume and concentration) over a dosing interval, the urinary excretion rates and renal clearance (CLr) of Compound 1 following the initial Day 1 and final Day 5 doses were summarized by the treatment groups.

SMILES: CN(C)c1cc(CNCC(C)(C)C)c(O)c2c1C[C@H]1C[C@H]3[C@H](N(C)C)C(O)=C(C(N)=O)C(=O)[C@@]3(O)C(O)=C1C2=O [Compound 1, 9-[(2,2-dimethyl-propylamino)-methyl]-minocycline]
- Ae 12-24 hrs, Mean (Day 1, IV_PO300): 14.00 mg
- Ae 12-24 hrs, Median (Day 1, IV_PO300): 12.32 mg
- Fe 0-24 hrs, Geo. Mean (Day 1, IV_PO300): 18.49%
- Fe 0-24 hrs, Mean (Day 1, IV_PO300): 20.35%
- Fe 0-24 hrs, Median (Day 1, IV_PO300): 20.70%
- Ae 0-4 hrs, Geo. Mean (Day 1, PO300): 5.90 mg
- Ae 0-4 hrs, Mean (Day 1, PO300): 6.41 mg
- Ae 0-4 hrs, Median (Day 1, PO300): 6.58 mg
- Ae 0-24 hrs, Geo. Mean (Day 1, PO300): 36.94 mg
- Ae 0-24 hrs, Median (Day 1, PO300): 39.07 mg
- Ae 4-8 hrs, Geo. Mean (Day 1, PO300): 6.42 mg
- Ae 4-8 hrs, Mean (Day 1, PO300): 7.60 mg
- Ae 4-8 hrs, Median (Day 1, PO300): 6.28 mg
- Ae 8-12 hrs, Geo. Mean (Day 1, PO300): 7.22 mg
- Ae 8-12 hrs, Mean (Day 1, PO300): 9.17 mg
- Ae 8-12 hrs, Median (Day 1, PO300): 6.86 mg
- Ae 12-24 hrs, Geo. Mean (Day 1, PO300): 14.19 mg
- Ae 12-24 hrs, Mean (Day 1, PO300): 16.82 mg
- Ae 12-24 hrs, Median (Day 1, PO300): 16.30 mg
- Fe 0-24 hrs, Geo. Mean (Day 1, PO300): 6.16%
- Fe 0-24 hrs, Mean (Day 1, PO300): 6.54%
- Fe 0-24 hrs, Median (Day 1, PO300): 6.51%
- Ae 0-4 hrs, Geo. Mean (Day 1, PO450): 3.96 mg
- Ae 0-4 hrs, Mean (Day 1, PO450): 7.27 mg
- Ae 0-4 hrs, Median (Day 1, PO450): 5.05 mg
- Ae 0-24 hrs, Geo. Mean (Day 1, PO450): 34.07 mg
- Ae 0-24 hrs, Median (Day 1, PO450): 37.30 mg
- Ae 4-8 hrs, Geo. Mean (Day 1, PO450): 6.00 mg
- Ae 4-8 hrs, Mean (Day 1, PO450): 7.11 mg
- Ae 4-8 hrs, Median (Day 1, PO450): 6.16 mg
- Ae 8-12 hrs, Geo. Mean (Day 1, PO450): 4.75 mg
- Ae 8-12 hrs, Mean (Day 1, PO450): 5.36 mg
- Ae 8-12 hrs, Median (Day 1, PO450): 5.27 mg
- Ae 12-24 hrs, Geo. Mean (Day 1, PO450): 14.57 mg
- Ae 12-24 hrs, Mean (Day 1, PO450): 16.92 mg
- Ae 12-24 hrs, Median (Day 1, PO450): 15.98 mg
- Fe 0-24 hrs, Geo. Mean (Day 1, PO450): 3.79%
- Fe 0-24 hrs, Mean (Day 1, PO450): 3.99%
- Fe 0-24 hrs, Median (Day 1, PO450): 4.14%
- Ae 0-4 hrs, Geo. Mean (Day 5, IV_PO300): 3.89 mg
- Ae 0-4 hrs, Mean (Day 5, IV_PO300): 7.74 mg
- Ae 0-4 hrs, Median (Day 5, IV_PO300): 4.99 mg
- Ae 0-24 hrs, Geo. Mean (Day 5, IV_PO300): 21.72 mg
- Ae 0-24 hrs, Median (Day 5, IV_PO300): 31.29 mg
- Ae 4-8 hrs, Geo. Mean (Day 5, IV_PO300): 5.22 mg
- Ae 4-8 hrs, Mean (Day 5, IV_PO300): 8.38 mg
- Ae 4-8 hrs, Median (Day 5, IV_PO300): 7.13 mg
- Ae 8-12 hrs, Geo. Mean (Day 5, IV_PO300): 3.94 mg
- Ae 8-12 hrs, Mean (Day 5, IV_PO300): 6.28 mg
- Ae 8-12 hrs, Median (Day 5, IV_PO300): 6.47 mg
- Ae 12-24 hrs, Geo. Mean (Day 5, IV_PO300): 7.31 mg
- Ae 12-24 hrs, Mean (Day 5, IV_PO300): 10.71 mg
- Ae 12-24 hrs, Median (Day 5, IV_PO300): 11.25 mg
- Fe 0-24 hrs, Geo. Mean (Day 5, IV_PO300): 7.24%
- Fe 0-24 hrs, Mean (Day 5, IV_PO300): 10.76%
- Fe 0-24 hrs, Median (Day 5, IV_PO300): 10.43%
- Ae 0-4 hrs, Geo. Mean (Day 5, PO300): 7.20 mg
- Ae 0-4 hrs, Mean (Day 5, PO300): 10.02 mg
- Ae 0-4 hrs, Median (Day 5, PO300): 9.35 mg
- Ae 0-24 hrs, Geo. Mean (Day 5, PO300): 31.46 mg
- Ae 0-24 hrs, Median (Day 5, PO300): 34.96 mg
- Ae 4-8 hrs, Geo. Mean (Day 5, PO300): 9.17 mg
- Ae 4-8 hrs, Mean (Day 5, PO300): 10.54 mg
- Ae 4-8 hrs, Median (Day 5, PO300): 8.05 mg
- Ae 8-12 hrs, Geo. Mean (Day 5, PO300): 5.02 mg
- Ae 8-12 hrs, Mean (Day 5, PO300): 6.74 mg
- Ae 8-12 hrs, Median (Day 5, PO300): 7.29 mg
- Ae 12-24 hrs, Geo. Mean (Day 5, PO300): 10.71 mg
- Ae 12-24 hrs, Mean (Day 5, PO300): 11.95 mg
- Ae 12-24 hrs, Median (Day 5, PO300): 11.38 mg
- Fe 0-24 hrs, Geo. Mean (Day 5, PO300): 10.49%
- Fe 0-24 hrs, Mean (Day 5, PO300): 12.74%
- Fe 0-24 hrs, Median (Day 5, PO300): 11.65%
- Ae 0-4 hrs, Geo. Mean (Day 5, PO450): 9.50 mg
- Ae 0-4 hrs, Mean (Day 5, PO450): 12.07 mg
- Ae 0-4 hrs, Median (Day 5, PO450): 11.76 mg
- Ae 0-24 hrs, Geo. Mean (Day 5, PO450): 43.60 mg
- Ae 0-24 hrs, Median (Day 5, PO450): 50.26 mg
- Ae 4-8 hrs, Geo. Mean (Day 5, PO450): 11.02 mg
- Ae 4-8 hrs, Mean (Day 5, PO450): 19.74 mg
- Ae 4-8 hrs, Median (Day 5, PO450): 10.30 mg
- Ae 8-12 hrs, Geo. Mean (Day 5, PO450): 6.01 mg
- Ae 8-12 hrs, Mean (Day 5, PO450): 7.54 mg
- Ae 8-12 hrs, Median (Day 5, PO450): 5.62 mg
- Ae 12-24 hrs, Geo. Mean (Day 5, PO450): 15.26 mg
- Ae 12-24 hrs, Mean (Day 5, PO450): 18.59 mg
- Ae 12-24 hrs, Median (Day 5, PO450): 20.23 mg
- Fe 0-24 hrs, Geo. Mean (Day 5, PO450): 9.69%
- Fe 0-24 hrs, Mean (Day 5, PO450): 12.19%
- Fe 0-24 hrs, Median (Day 5, PO450): 11.17%
